Peptide text beside a SMILES is read from it.
Test: degradation of Aspartame following 2 months storage
Assay type: physicochemical
Settings: pH below 3.4; confirmed by degradation following 2 months storage
From the text: The sweetener was changed to Aspartame. After another round of taste testing the formulation with 10 g/L of Aspartame became the most acceptable formulation in terms of taste tolerability, but Aspartame is unstable at pH below 3.4 and this was confirmed by testing the degradation of Aspartame following 2 months storage.

COC(=O)[C@H](Cc1ccccc1)NC(=O)[C@@H](N)CC(=O)O [Aspartame] (HELM PEPTIDE1{D.F.[CO[*:1]]}$$$$V2.0)
stability of Aspartame: unstable
